Entries after “also recorded” stand apart in the source; their conditions may differ.
Experiments:
[1] = system: intact cells; experiment: Screening assay (3): assay to assess uncoupling in intact cells; type: cell-based, human; design: key: graded either +, ++ or +++ in increasing order of potency; graded either +, ++ or +++ in increasing order of potency; graded either +, ++ or +++ in increasing order of potency; (+): Brackets [( )] indicate an intermediate effect; (++): Brackets [( )] indicate an intermediate effect; (+++) is between ++ and +++; conditions: for Convergent (Routine): increase in mitochondrial oxygen consumption induced by the compound; for Uncoupling: level of oxygen consumption after addition of oligomycin
Procedure: Measurement of mitochondrial respiration is performed in a high-resolution oxygraph (Oxygraph-2k, Oroboros Instruments, Innsbruck, Austria) at a constant temperature of 37° C. […] In the third protocol, the same buffer as described above is used. […] Subsequently, the ATP-synthase-inhibitor Oligomycin is added. A reduction in respiration is a measure of how much of the oxygen consumption that is coupled to ATP synthesis. No, or only a slight, reduction indicate that the compound is inducing a proton leak over the inner mitochondrial membrane. The uncoupler FCCP is then titrated to induce maximum uncoupled respiration. […] The experiment is terminated by the addition of 1 μg/mL of the complex III inhibitor Antimycin to measure non-mitochondrial oxygen consumption.

[2] = system: intact cells; experiment: Screening assay (2): enhancement and inhibition of mitochondrial energy producing function in intact cells (FCCP uncoupled); type: cell-based, human; design: key to Convergent (FCCP): graded either +, ++ or +++ in increasing order of potency; graded either +, ++ or +++ in increasing order of potency; graded either +, ++ or +++ in increasing order of potency; (+): Brackets [( )] indicate an intermediate effect; (++): Brackets [( )] indicate an intermediate effect; (+++) is between ++ and +++; conditions: for Convergent (FCCP): increase in mitochondrial oxygen consumption induced by the compound, screening assay 2 (uncoupled conditions); for Toxicity: lowest concentration during compound titration at which a decrease in oxygen consumption is seen, screening assay 2
Procedure: (§1) Measurement of mitochondrial respiration is performed in a high-resolution oxygraph (Oxygraph-2k, Oroboros Instruments, Innsbruck, Austria) at a constant temperature of 37° C. Isolated human platelets, white blood cells, fibroblasts, human heart muscle fibers or other cell types containing live mitochondria are suspended in a 2 mL glass chamber at a concentration sufficient to yield oxygen consumption in the medium of ≥10 pmol O2 s^−1 mL^−1.
(2) Assay for Enhancement and Inhibition of Mitochondrial Energy Producing Function in Intact Cells
In the second protocol the same buffer is used as described above. After basal respiration is established, the mitochondrial uncoupler FCCP is added at a concentration of 2 nM to increase metabolic demand.

[3] = system: cells with inhibited complex I; experiment: Screening assay (1): enhancement of mitochondrial energy producing function in cells with inhibited respiratory complex I (high-resolution respirometry); type: cell-based, human; design: key: graded either +, ++ or +++ in increasing order of potency; graded either +, ++ or +++ in increasing order of potency; graded either +, ++ or +++ in increasing order of potency; (+): Brackets [( )] indicate an intermediate effect; (++): Brackets [( )] indicate an intermediate effect; (+++) is between ++ and +++; conditions: increase in mitochondrial oxygen consumption in cells with inhibited complex I
Procedure: as §1
(1) Assay for Enhancement of Mitochondrial Energy Producing Function in Cells with Inhibited Respiratory Complex I
Cells are placed in a buffer containing 110 mM sucrose, HEPES 20 mM, taurine 20 mM, K-lactobionate 60 mM, MgCl2 3 mM, KH2PO4 10 mM, EGTA 0.5 mM, BSA 1 g/l, pH 7.1. […] Compounds dissolved in DMSO are titrated in a range of 10 μM to 10 mM final concentration. Subsequently, cell membranes are permeabilised with digitonin (1 mg/1*10^6 plt) to allow entry of extracellularly released energy substrate or cell impermeable energy substrates. After stabilized respiration, Succinate 10 mM is added as a reference to enable respiration downstream of complex I. After the respiration stabilized the experiment is terminated by addition of Antimycin at final concentration 1 μg/mL and any residual non-mitochondrial oxygen consumption is measured. An increase in respiration rate in the described protocol is tightly coupled to ATP synthesis by oxidative phosphorylation unless cells are uncoupled (i.e. proton leak without production of ATP). Uncoupling is tested for by addition of the ATP synthase inhibitor oligomycin (1-2 μg mL^−1) in a protocol 3 where the extent of uncoupling corresponds to the respiratory rate following oligomycin addition.

[4] = system: Intact human blood cells; experiment: Screening assay (4): enhancement of mitochondrial energy producing function in cells with inhibited respiratory complex I in human plasma; type: cell-based; design: key: graded either +, ++ or +++ in increasing order of potency; graded either +, ++ or +++ in increasing order of potency; graded either +, ++ or +++ in increasing order of potency; (+): Brackets [( )] indicate an intermediate effect; (++): Brackets [( )] indicate an intermediate effect; (+++) is between ++ and +++; conditions: increase in mitochondrial oxygen consumption in cells with inhibited complex I incubated in human plasma
Procedure: Measurement of mitochondrial respiration is performed in a high-resolution oxygraph (Oxygraph-2k, Oroboros Instruments, Innsbruck, Austria) at a constant temperature of 37° C. […] Intact human blood cells are incubated in plasma from the same donor. […] The experiment is terminated by addition of Antimycin at final concentration 1 μg/mL and any residual non-mitochondrial oxygen consumption is measured.

[5] = system: intact cells; experiment: Assays exemplified in the patent (not specified further) for known succinate esters; type: cell-based
Excerpt: I. Assays for Evaluating Enhancement and Inhibition of Mitochondrial Energy Producing Function in Intact Cells
Four Typical Evaluation Protocols in Intact Cells are Utilized.

[6] = system: intact human platelets; experiment: Intervention on metformin- or rotenone-induced lactate production with cell-permeable succinate prodrugs; type: cell-based; conditions: for effect on rotenone-induced lactate production: 2 μM rotenone, repeated additions of 250 μM; for effect on lactate production of metformin-incubated cells: 10 mM metformin, additions of 250 μM each 30 minutes
Procedure: Lactate production of intact human platelets was determined in PBS containing 10 mM glucose.
(§2) Lactate levels are determined every 2 h (or more frequent eg every 30 min) using the Lactate Pro™ 2 blood lactate test meter (Arkray, Alere AB, Lidingö, Sweden) or similar types of measurements. Incubation is performed at 37° C. pH is measured at start, after 4 and after 8 h (or more frequently) of incubation using a Standard pH Meter, e.g. PHM210 (Radiometer, Copenhagen, Denmark). Drug candidates are added to the assay from start or following 30-60 min at concentrations within the range 10 μM-5 mM. […] In order to evaluate the specificity of the drug candidate, it is also tested in combination with a down-stream inhibitor of respiration such as the complex III inhibitor Antimycin at 1 μg/mL, which should abolish the effect of the drug candidate and restore the production of lactate. The use of antimycin is therefore also a control for undue effects of drug candidates on the lactate producing ability of the cells used in the assay. (See e.g. FIGS. 9, 10 and 11).
Lactate levels were measured in intervals of 30 min with the onset of the experiment. Additionally, pH was measured prior to the first addition of vehicle (dmso, control), the different cell-permeable succinate prodrugs (NV118, NV189, NV241) or succinate and at the end of the experiment.

[7] = system: intact PBMCs; experiment: Lactate release of intact PBMCs exposed to metformin; type: cell-based, human; conditions: 10 mM metformin, data not shown
[8] = system: intact human platelets
Procedure: Real-time respirometric measurements were performed using high-resolution oxygraphs (Oxygraph-2k, Oroboros Instruments, Innsbruck, Austria). The experimental conditions during the measurements were the following: 37° C., 2 mL active chamber volume and 750 rpm stirrer speed. […] For data recording, DatLab software version 4 and 5 were used (Oroboros Instruments, Innsbruck, Austria). Settings, daily calibration and instrumental background corrections were conducted according to the manufacturer's instructions. […] All measurements were performed at a platelet concentration of 200×10^6 cells per mL or a PBMC concentration of 5×10^6 cells per mL.
Venous blood from 18 healthy adults (11 males and 7 females) was drawn in K2EDTA tubes (BD Vacutainer® Brand Tube with dipotassium EDTA, BD, Plymouth, UK) according to clinical standard procedure after written informed consent was acquired. For platelet isolation the whole blood was centrifuged (Multifuge 1 S—R Heraeus, Thermo Fisher Scientifics, Waltham, USA) at 500 g at room temperature (RT) for 10 min. Platelet-rich plasma was collected to 15 mL falcon tubes and centrifuged at 4600 g at RT for 8 min. The resulting pellet was resuspended in 1-2 mL of the donor's own plasma. […] The blood remaining after isolation of platelets was washed with an equal volume of physiological saline and layered over 3 mL of Lymphoprep™. After centrifugation at 800 g at RT (room temperature) for 30 min the PBMC layer was collected and washed with physiological saline. Following a centrifugation at 250 g at RT for 10 min the pellet of PBMCs was resuspended in two parts of physiological saline and one part of the donor's own plasma. Cell count for both PBMCs and platelets were performed using an automated hemocytometer (Swelab Alfa, Boule Medical AB, Stockholm, Sweden).
Routine respiration was followed for 60 min at 37° C. before the ATP-synthase inhibitor oligomycin (1 μg mL^−1) was added to assess LEAK respiration. Maximal uncoupled respiratory electron transport system capacity supported by endogenous substrates (ETS) was reached by titration of FCCP.

[9] = system: permeabilized human PBMCs; experiment: cells; conditions: PBMC, read-out: IC50 for inhibition of OXPHOSCI
Procedure: Real-time respirometric measurements were performed using high-resolution oxygraphs (Oxygraph-2k, Oroboros Instruments, Innsbruck, Austria). The experimental conditions during the measurements were the following: 37° C., 2 mL active chamber volume and 750 rpm stirrer speed. […] For data recording, DatLab software version 4 and 5 were used (Oroboros Instruments, Innsbruck, Austria). Settings, daily calibration and instrumental background corrections were conducted according to the manufacturer's instructions. […] Standard non-linear curve fitting was applied to calculate half maximal inhibitory concentration (IC50) values. […] Maximal uncoupled respiratory electron transport system capacity supported by convergent input through complex I and […] ) was evaluated by subsequent titration with the protonophore carbonyl-cyanide p-(trifluoromethoxy) phenylhydrazone (FCCP). […] The complex III inhibitor antimycin (1 μg mL^-1) was then given to reveal residual oxygen consumption (ROX). […] Complex IV activity was calculated by subtracting the sodium azide value from the TMPD value. With exception of complex IV activity, all respiratory states were measured at steady-state and corrected for ROX. Complex IV activity was measured after ROX determination and not at steady-state.

[10] = Al-Abri et al., 2013; cited from earlier work
[11] = system: intact human platelets; experiment: Effect of metformin and phenformin on lactate production and pH of intact human platelets; type: cell-based; conditions: metformin 1 and 10 mM, phenformin 0.5 mM, rotenone 2 μM
Procedure: as §2
Incubation was performed at 37° C. at a stirrer speed of 750 rpm, and pH was measured at start, after 4 and after 8 h of incubation (n=4) using a PHM210 Standard pH Meter (Radiometer, Copenhagen, Denmark).

[12] = system: permeabilized human platelets; experiment: cells; conditions: Platelet, read-out: IC50 for inhibition of OXPHOSCI
Procedure: (§3) Real-time respirometric measurements were performed using high-resolution oxygraphs (Oxygraph-2k, Oroboros Instruments, Innsbruck, Austria). The experimental conditions during the measurements were the following: 37° C., 2 mL active chamber volume and 750 rpm stirrer speed. […] For data recording, DatLab software version 4 and 5 were used (Oroboros Instruments, Innsbruck, Austria). Settings, daily calibration and instrumental background corrections were conducted according to the manufacturer's instructions. […] Lactate production of intact human platelets was determined in PBS containing 10 mM glucose. All measurements were performed at a platelet concentration of 200×10^6 cells per mL or a PBMC concentration of 5×10^6 cells per mL.
(§4) All respiratory, lactate and pH data are expressed as mean±SEM. Ratios are plotted as individuals and means. One-way ANOVA was used for one-factor comparison of three or more groups (concentration of drugs) and two-way mixed model ANOVA was used for two-factor comparison (time and concentration of drugs/treatment) of three or more groups. Post-hoc tests to compensate for multiple comparisons were done according to Holm-Sidak. Correlations were expressed as r^2 and P-values. […]
(§5) In order to investigate the specific target of biguanide toxicity, a protocol was applied using digitonin permeabilization of the blood cells and sequential additions of respiratory complex-specific substrates and inhibitors in MiR05 medium. […] Maximal uncoupled respiratory electron transport system capacity supported by convergent input through complex I and II (ETSCI+II) was evaluated by subsequent titration with the protonophore carbonyl-cyanide p-(trifluoromethoxy) phenylhydrazone (FCCP). […] Complex IV activity was calculated by subtracting the sodium azide value from the TMPD value. With exception of complex IV activity, all respiratory states were measured at steady-state and corrected for ROX. Complex IV activity was measured after ROX determination and not at steady-state.

[13] = system: permeabilized human platelets
Procedure: as §3, §4, §5

[14] = patients; cited from earlier work

SMILES	Convergent (Routine) [1]	Uncoupling [1]	Convergent (FCCP) [2]	Toxicity [2]	CII [3]	CII (plasma) [4]	also measured
CCC(=O)N[C@@H](CSC(=O)CCC(=O)O)C(=O)O [01-041, (R)-4-(2-carboxy-2-propionamidoethylthio)-4-oxobutanoic acid]	+	(+)	+++	5 mM	++	+	
CC(=O)NCCSC(=O)CCC(=O)O [01-108, 4-(2-acetamidoethylthio)-4-oxobutanoic acid]	++	+	++	10 mM	(++)	(+)	
CCC(=O)NCCSC(=O)CCC(=O)O [01-114, 4-oxo-4-(2-propionamidoethylthio)butanoic acid]	+++	(+)	++	10 mM	++	+	
CCC(=O)N[C@@H](CSC(=O)CCC(=O)SC[C@H](NC(=O)CC)C(=O)N(CC)CC)C(=O)N(CC)CC [01-185, S,S-bis((R)-3-(diethylamino)-3-oxo-2-propionamidopropyl) butanebis(thioate)]	(+)	(+)	+	2 mM	+	+	
CC(=O)NCC(C)(C)SC(=O)CCC(=O)O [01-188, 4-(1-acetamido-2-methylpropan-2-ylthio)-4-oxobutanoic acid]	+++	(+)	+++	5 mM	+	+	
CCN(CC)C(=O)COCCSC(=O)CCC(=O)O [01-193, 4-(2-(2-(diethylamino)-2-oxoethoxy)ethylthio)-4-oxobutanoic acid]	(++)	+	+	5 mM	+	(+)	
CCC(=O)N[C@@H](CSC(=O)CCC(=O)SC[C@H](NC(=O)CC)C(=O)OC)C(=O)OC [01-205, (R)-methyl 3-(4-((R)-3-methoxy-3-oxo-2-propionamidopropylthio)-4-oxobutanoylthio)-2-propionamidopropanoate]	+++	(+)	++	5 mM	++	+	
CCOC(=O)CCC(=O)OCC [Diethyl succinate]							activity in the assays exemplified [5]: inactive
CC(=O)OCOC(=O)CCC(=O)OCOC(C)=O [NV118]							effect on rotenone-induced lactate production [6]: attenuated; effect on lactate production of metformin-incubated cells [6]: significantly decreased
CC(=O)OC(C)OC(=O)CCC(=O)OC(C)OC(C)=O (stereo not drawn) [NV189]							effect on rotenone-induced lactate production [6]: attenuated; also recorded: brought back to normal; effect on lactate production of metformin-incubated cells [6]: significantly decreased
CC(=O)OCOC(=O)CCC(=O)OC(C)OC(C)=O (stereo not drawn) [NV241]							effect on rotenone-induced lactate production [6]: attenuated; effect on lactate production of metformin-incubated cells [6]: significantly decreased
COC(=O)CCC(=O)OC [dimethyl succinate]							activity in the assays exemplified [5]: inactive
CN(C)C(=N)N=C(N)N [metformin]							lactate release of intact PBMCs [7]: increased lactate release; LEAK respiration in intact cells ([8]; data not shown): not significantly changed; toxic concentration seen in the present study ([8]; human blood cells): 1 mM; reversibility of complex I inhibition upon removal of the drug ([8]; washing and permeabilizing the cells): did not seem to be reversible; IC50 [9]: 450 µM; serum level in a case report of involuntary intoxication, prior to hemodialysis [10]: over 2 mM
COC(=O)CCC(=O)O [monomethyl succinate]							activity in the assays exemplified [5]: inactive
[H]/N=C(/N)N/C(=N/[H])NCCc1ccccc1 [phenformin]							lactate produced over 8 h of treatment compared to control [11]: significantly more lactate; IC50 [12]: 58 µM; effect on OXPHOSCI, OXPHOSCI+II and ETSCI+II [13]: inhibited; potency of inhibition of OXPHOSCI relative to metformin [13]: 20 fold; incidence of lactic acidosis [14]: 4 cases per 10000 treatment-years
O=C(O)CCC(=O)O [succinate]							effect on lactate production of metformin-incubated cells [6]: did not reduce; also recorded: did not change this
